Experimental data published in the supplement of paper PMC13380429.
Where a name gives a salt, the structure may show the parent alone.

How the values were obtained:
Settings in all cases: 72 h
Caco-2 [1] = assay: cell viability relative to DMSO; higher = less toxic
Calu-3 [2] = assay: as above
HepG2 [3] = assay: as above
U2OS [4] = assay: as above
Vero E6 [5] = assay: as above
Caco-2 [6] = assay: relative viability EC50 (midpoint between 100% and the lowest measured viability); higher = less toxic
Calu-3 [7] = assay: as above
HepG2 [8] = assay: as above
U2OS [9] = assay: as above
Vero E6 [10] = assay: as above
Caco-2 [11] = assay: drug sensitivity score (DSS) for viability; higher = more toxic; extreme values may be limits of the assay
Calu-3 [12] = assay: as above
HepG2 [13] = assay: as above
U2OS [14] = assay: as above
Vero E6 [15] = assay: as above

| SMILES | cell viability (Caco-2 [1]; 1 nM) | cell viability (Caco-2 [1]; 10 nM) | cell viability (Caco-2 [1]; 100 nM) | cell viability (Caco-2 [1]; 1000 nM) | cell viability (Caco-2 [1]; 10000 nM) | cell viability (Calu-3 [2]; 1 nM) | cell viability (Calu-3 [2]; 10 nM) | cell viability (Calu-3 [2]; 100 nM) | cell viability (Calu-3 [2]; 1000 nM) | cell viability (Calu-3 [2]; 10000 nM) | cell viability (HepG2 [3]; 1 nM) | cell viability (HepG2 [3]; 10 nM) | cell viability (HepG2 [3]; 100 nM) | cell viability (HepG2 [3]; 1000 nM) | cell viability (HepG2 [3]; 10000 nM) | cell viability (U2OS [4]; 1 nM) | cell viability (U2OS [4]; 10 nM) | cell viability (U2OS [4]; 100 nM) | cell viability (U2OS [4]; 1000 nM) | cell viability (U2OS [4]; 10000 nM) | cell viability (Vero E6 [5]; 1 nM) | cell viability (Vero E6 [5]; 10 nM) | cell viability (Vero E6 [5]; 100 nM) | cell viability (Vero E6 [5]; 1000 nM) | cell viability (Vero E6 [5]; 10000 nM) | relative viability EC50 (Caco-2 [6]) | relative viability EC50 (Calu-3 [7]) | relative viability EC50 (HepG2 [8]) | relative viability EC50 (U2OS [9]) | relative viability EC50 (Vero E6 [10]) | drug sensitivity score (Caco-2 [11]) | drug sensitivity score (Calu-3 [12]) | drug sensitivity score (HepG2 [13]) | drug sensitivity score (U2OS [14]) | drug sensitivity score (Vero E6 [15]) |
| --- | --- | --- | --- | --- | --- | --- | --- | --- | --- | --- | --- | --- | --- | --- | --- | --- | --- | --- | --- | --- | --- | --- | --- | --- | --- | --- | --- | --- | --- | --- | --- | --- | --- | --- | --- |
| C=CC[N+]1([C@H]2C[C@H]3[C@@H]4CC[C@H]5C[C@H](O)[C@@H](N6CCOCC6)C[C@]5(C)[C@H]4CC[C@]3(C)[C@H]2OC(C)=O)CCCC1 [ROCURONIUM BROMIDE] | 104% | 103% | 107% | 132% | 79.8% | 98.1% | 105% | 107% | 94.9% | 105% | 97.7% | 113% | 108% | 111% | 108% | 106% | 99.3% | 103% | 103% | 108% | 91% | 95.1% | 89.5% | 88.5% | 95.6% | > 10 µM | > 10 µM | > 10 µM | > 10 µM | > 10 µM | 0.2 | 0 | 0 | 0 | 0 |
| N[C@@H](CSS(=O)(=O)O)C(=O)O [S-sulfo-L-cysteine] | 97.9% | 105% | 88.1% | 100% | 94.2% | 97.7% | 92.6% | 94.4% | 95.8% | 95.2% | 108% | 101% | 103% | 94.8% | 94.5% | 94.4% | 102% | 95% | 102% | 98.4% | 98.3% | 96.2% | 103% | 97.5% | 102% | > 10 µM | > 10 µM | > 10 µM | > 10 µM | > 10 µM | 0 | 0 | 0 | 0 | 0 |
| COCCN1CCC(C(=O)NO)(S(=O)(=O)c2ccc(Oc3ccc(OC(F)(F)F)cc3)cc2)CC1 [SD-2590] | 97.8% | 103% | 95.9% | 98.8% | 107% | 93.9% | 96.8% | 96.9% | 98.8% | 88.1% | 95.9% | 93.8% | 93.9% | 89% | 91.6% | 98.2% | 103% | 92.2% | 100% | 98.8% | 97.6% | 94% | 98.7% | 92.2% | 103% | > 10 µM | > 10 µM | > 10 µM | > 10 µM | > 10 µM | 0 | 0.1 | 0 | 0 | 0 |
| CC(C)(C)c1ccc(S(=O)(=O)NCc2ccc(C(=O)Nc3cccnc3)cc2)cc1 [STF-31] | 96.7% | 99.3% | 96.2% | 89.6% | 5.5% | 90.7% | 96.3% | 100% | 106% | 7.7% | 105% | 103% | 106% | 76.5% | 16.9% | 103% | 98.8% | 106% | 28.8% | 0.2% | 103% | 102% | 106% | 101% | 2.9% | 2.26 µM | 3.48 µM | 1.45 µM | 0.698 µM | 3.2 µM | 7 | 4.7 | 8.1 | 13.6 | 5.4 |
| CN[C@@H]1[C@H](O[C@H]2[C@H](O[C@H]3[C@H](O)[C@@H](O)[C@H](N=C(N)N)[C@@H](O)[C@@H]3N=C(N)N)O[C@@H](C)[C@]2(O)C=O)O[C@@H](CO)[C@H](O)[C@H]1O [STREPTOMYCIN SULFATE [5mM; 10% aq DMSO + 5mM ethanolamine]] | 95% | 106% | 88.5% | 95.7% | 98.1% | 87.6% | 102% | 86.6% | 91.9% | 91.7% | 101% | 105% | 102% | 101% | 98.2% | 98.7% | 100% | 94.5% | 99.5% | 95.7% | 97.8% | 98.5% | 99.9% | 95.2% | 98.3% | > 10 µM | > 10 µM | > 10 µM | > 10 µM | > 10 µM | 0 | 0 | 0 | 0 | 0 |
| O=C1CC(=O)c2c(Cl)c(Cl)c(Cl)c(Cl)c21 [TCID] | 120% | 102% | 98.3% | 91.1% | 95.6% | 88% | 88.5% | 91.7% | 77.9% | 89.2% | 99.9% | 101% | 104% | 107% | 107% | 101% | 103% | 106% | 104% | 94.6% | 101% | 99.1% | 97% | 101% | 100% | > 10 µM | > 10 µM | > 10 µM | > 10 µM | > 10 µM | 0 | 0 | 0 | 0 | 0 |
| COc1cc2c(cc1OC)CN(C(=O)[C@@H](NCc1ccncc1)C(C)(C)C)CC2 [TCS-OX2-29] | 96.9% | 95.2% | 97.3% | 99.2% | 91.1% | 114% | 88.9% | 103% | 98.6% | 91.7% | 101% | 93.1% | 103% | 94.3% | 102% | 94.6% | 100% | 92.6% | 98.3% | 99.7% | 100% | 91.9% | 96.8% | 93.9% | 96.9% | > 10 µM | > 10 µM | > 10 µM | > 10 µM | > 10 µM | 0 | 0 | 0 | 0 | 0 |
